Experiments:
[1] = system: T-Rex 293 cell line SC cells lacking increased expression of progesterone receptor isoform B protein; experiment: Cellular growth inhibition assay, T-Rex 293 SC cells not exposed to doxycycline (no increased progesterone receptor isoform B expression), CellTiter-Glo; type: cell-based; conditions: T-Rex 293 SC cells without doxycycline (no increased PR isoform B), 72 hours
Protocol: The SC cells were seeded on poly-D-lysine coated, black clear-bottom 384-well plates at 2500/well, in 25 μL Phenol Red Free Dulbecco's Modified Eagle Medium (DMEM) supplemented with 10% w/w charcoal-dextran treated fetal bovine serum (FBS) and 1% w/w pen-strep, with or without 10 ng/mL doxycycline. Pen-Strep is a commercially available mixture of penicillin G and streptomycin, which is used in mammalian cell culture media to prevent bacterial contamination. Phenol Red Free Dulbecco's Modified Eagle Medium (DMEM) supplemented with 10% w/w charcoal-dextran treated fetal bovine serum (FBS) and 1% w/w pen-strep, with or without 10 ng/mL doxycycline is herein referred to as Treatment Medium. Following seeding of cells in the plates, the plates were spun at 300×g for 30 seconds, then equilibrated to room temperature for 30 minutes, and then deposited in a humidified tissue culture incubator maintained at 37° C. with 5% CO2.
At 24 hours after seeding of the cells, dilutions of test compound were prepared in DMSO and dissolved in Treatment Medium, to achieve a final DMSO concentration of 0.5% w/w, thereby providing the Test Compound Solution. A 25 μL aliquot of the Test Compound Solution was added to cells in the well plates. An equal volume of a solution containing DMSO and Treatment Medium was used as a negative control. Following treatment of cells with Test Compound Solution or said equal volume of a solution containing DMSO and Treatment Medium, the plates were spun at 300×g for 30 seconds, and then left in an incubator for 72 hours.
At the end of the treatment duration, cell viability was quantified with CellTiter-Glo 2.0 reagent (Promega Cat #G9243). For this purpose, plates were equilibrated to room temperature for 30 minutes, and then 25 μL of CellTiter-Glo 2.0 reagent was added to cells in the plate wells. Plates were then agitated on a shaker for two minutes at 500 rpm and subsequently incubated at room temperature for 10 minutes. Following incubation, the plates were spun at 3000×g for 30 seconds, then sealed with an optical adhesive cover, and luminescence readings were measured with an EnVision Plate Reader (Perkin Elmer).
Data was normalized using zero luminescence for baseline. A four-parameter non-linear regression curve fit was applied to dose-response data in GraphPad Prism data analysis software to determine the half-maximal growth inhibitory concentration (GI50) for each test compound.

[2] = molecular target: T1, progesterone receptor ligand binding domain (GST-tagged PR LBD) (Homo sapiens, UniProt P06401); experiment: FP Assay for Binding Affinity to Progesterone Receptor (PolarScreen Progesterone Receptor Competitor Assay Kit); conditions: fluorescence polarization, Fluormone tracer, 2 hours at room temperature
T1 construct: purchased Life Technologies A15905 or a15906
T1 sequence (P06401 679-913 limits assumed): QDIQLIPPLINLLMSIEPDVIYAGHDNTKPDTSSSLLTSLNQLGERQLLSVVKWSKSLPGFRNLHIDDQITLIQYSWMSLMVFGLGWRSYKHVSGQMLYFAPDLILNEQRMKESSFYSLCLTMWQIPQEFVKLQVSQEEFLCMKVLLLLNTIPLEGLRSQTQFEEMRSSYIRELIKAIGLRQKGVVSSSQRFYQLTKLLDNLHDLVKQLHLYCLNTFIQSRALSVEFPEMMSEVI
Protocol: Exemplary compounds were tested for ability to bind to the progesterone receptor ligand binding domain (LBD).
Compounds were tested using the PolarScreen™ Progesterone Receptor Competitor Assay Kit (Life Technologies Cat #A15905 or a15906), as per the manufacturer's instructions. Briefly, GST-tagged PR LBD, Fluormone tracer, and compound were mixed and incubated for 2 hours at room temperature in the dark. Following incubation, the plates were spun at 3000×g for 30 seconds, then sealed with an optical adhesive cover, and fluorescence polarization was measured using appropriate excitation and emission filters with an EnVision Plate Reader (Perkin Elmer). Compound concentration vs. mP value were plotted in Prism (GraphPad). A four-parameter non-linear regression curve fit was applied to dose-response data to determine the half-maximal inhibitory concentration (IC50) for each test compound.

Structure (SMILES) | GI50 [1] [nM] | IC50 [2] [nM]
Cn1cc(-c2cc(C(C)(C)O)ccc2Oc2cccc(N3CC(CC4CCN(c5ncc(C(=O)N[C@H]6C(C)(C)[C@H](Oc7ccc(C#N)c(Cl)c7)C6(C)C)cn5)CC4)C3)c2F)c2cc[nH]c2c1=O [Compound I-196] | > 3000 | 
Cn1cc(-c2cc(C(C)(C)O)ccc2Oc2ccc(CC3CCN(c4ncc(C(=O)N[C@H]5C(C)(C)[C@H](Oc6ccc(C#N)c(Cl)c6)C5(C)C)cn4)CC3)cc2)c2cc[nH]c2c1=O [Compound I-201] | 500 to 1500 | > 2500
CCS(=O)(=O)Nc1ccc(Oc2cccc(OC3CC(C4CCN(c5ncc(C(=O)N[C@H]6C(C)(C)[C@H](Oc7ccc(C#N)c(Cl)c7)C6(C)C)cn5)CC4)C3)c2)c(-c2cn(C)c(=O)c3[nH]ccc23)c1 (stereo partly shown) [Compound I-104] | > 3000 | > 2500
CCS(=O)(=O)Nc1ccc(Oc2ccc(F)c(OCCOC3CCN(c4ncc(C(=O)N[C@H]5C(C)(C)[C@H](Oc6ccc(C#N)c(Cl)c6)C5(C)C)cn4)CC3)c2F)c(-c2cn(C)c(=O)c3[nH]ccc23)c1 [Compound I-65] | < 500 | 
Cn1cc(-c2cc(C(C)(C)O)ccc2Oc2cccc(N3CC(OC4CCN(c5ncc(C(=O)N[C@H]6C(C)(C)[C@H](Oc7ccc(C#N)c(Cl)c7)C6(C)C)cn5)CC4)C3)c2F)c2cc[nH]c2c1=O [Compound I-190] | < 500 | 
CN(CC1CCN(c2ncc(C(=O)N[C@H]3C(C)(C)[C@H](Oc4ccc(C#N)c(Cl)c4)C3(C)C)cn2)CC1)C1(c2ccc(Oc3ccc(C(C)(C)O)cc3-c3cn(C)c(=O)c4[nH]ccc34)cc2)COC1 [Compound I-255] | 1500 to 3000 | 50 to 500
CC(C)N(C1CCN(c2ncc(C(=O)N[C@H]3C(C)(C)[C@H](Oc4ccc(C#N)c(Cl)c4)C3(C)C)cn2)CC1)C1CN(c2cccc(Oc3ccc(C(C)(C)O)cc3-c3cn(C)c(=O)c4[nH]ccc34)c2F)C1 [Compound I-221] | 1500 to 3000 | 50 to 500
CCS(=O)(=O)c1ccc(Oc2ccc(OCC3CCN(c4ncc5c(n4)CN([C@H]4C(C)(C)[C@H](Cc6ccc(C#N)c(Cl)c6)C4(C)C)C5=O)CC3)cc2)c(-c2cn(C)c(=O)c3[nH]ccc23)c1 [Compound I-220] | < 500 | 50 to 500
CCS(=O)(=O)Nc1ccc(Oc2cccc(N3CC4(CN(CC5CCN(c6ncc(C(=O)N[C@H]7C(C)(C)[C@H](Oc8ccc(C#N)c(Cl)c8)C7(C)C)cn6)CC5)C4)C3)c2)c(-c2cn(C)c(=O)c3[nH]ccc23)c1 [Compound I-35, N-((1r, 3r)-3-(3-chloro-4-cyanophenoxy)-2,2,4,4-tetramethylcyclobutyl)-2-(4-((6-(3-(4-(ethylsulfonamido)-2-(6-methyl-7-oxo-6,7-dihydro-1H-pyrrolo[2,3-c]pyridin-4-yl)phenoxy)phenyl)-2,6-diazaspiro[3.3]heptan-2-yl)methyl)piperidin-1-yl)pyrimidine-5-carboxamide] | > 3000 | 500 to 2500
Cn1cc(-c2cc(C(C)(C)O)ccc2Oc2cccc(N3CC(N4CCN(c5ncc(C(=O)N[C@H]6C(C)(C)[C@H](Oc7ccc(C#N)c(Cl)c7)C6(C)C)cn5)CC4)C3)c2F)c2cc[nH]c2c1=O [Compound I-92, N-((1r, 3r)-3-(3-chloro-4-cyanophenoxy)-2,2,4,4-tetramethylcyclobutyl)-2-(4-(1-(2-fluoro-3-(4-(2-hydroxypropan-2-yl)-2-(6-methyl-7-oxo-6,7-dihydro-1H-pyrrolo[2,3-c]pyridin-4-yl)phenoxy)phenyl)azetidin-3-yl)piperazin-1-yl)pyrimidine-5-carboxamide] | < 500 | 
CCS(=O)(=O)Nc1ccc(Oc2cccc(OC3CCC4(CC3)CCN(c3ncc(C(=O)N[C@H]5C(C)(C)[C@H](Oc6ccc(C#N)c(Cl)c6)C5(C)C)cn3)CC4)c2)c(-c2cn(C)c(=O)c3[nH]ccc23)c1 [Compound I-45] | > 3000 | > 2500
Cn1cc(-c2cc(C(C)(C)O)ccc2Oc2ccc(CCCC3CC4(C3)CN(c3ncc(C(=O)N[C@H]5C(C)(C)[C@H](Oc6ccc(C#N)c(Cl)c6)C5(C)C)cn3)C4)cc2)c2cc[nH]c2c1=O [Compound I-268] | < 500 | 50 to 500
Cn1cc(-c2cc(C(C)(C)O)ccc2Oc2ccc(N3CC(CC4CN(c5ncc(C(=O)N[C@H]6C(C)(C)[C@H](Oc7ccc(C#N)c(Cl)c7)C6(C)C)cn5)C4)C3)cc2)c2cc[nH]c2c1=O [Compound I-280] | < 500 | 50 to 500
CC(C)N(CC1CCN(c2ncc(C(=O)N[C@H]3C(C)(C)[C@H](Oc4ccc(C#N)c(Cl)c4)C3(C)C)cn2)CC1)[C@H]1C[C@H](Oc2cccc(Oc3ccc(C(C)(C)O)cc3-c3cn(C)c(=O)c4[nH]ccc34)c2F)C1 [Compound I-214] |  | < 50
CCS(=O)(=O)Nc1ccc(Oc2cccc(OCCOCCOCCOC3CCN(c4ncc(C(=O)N[C@H]5C(C)(C)[C@H](Oc6ccc(C#N)c(Cl)c6)C5(C)C)cn4)CC3)c2)c(-c2cn(C)c(=O)c3[nH]ccc23)c1 [Compound I-7] | < 500 | 
Cn1cc(-c2cc(C(C)(C)O)ccc2Oc2ccc(OCC3CCN(c4ncc(C(=O)N[C@H]5C(C)(C)[C@H](Oc6ccc(C#N)c(Cl)c6)C5(C)C)cn4)CC3)cc2)c2cc[nH]c2c1=O [Compound I-202] | 500 to 1500 | > 2500
CN(C1CCN(c2ncc(C(=O)N[C@H]3C(C)(C)[C@H](Oc4ccc(C#N)c(Cl)c4)C3(C)C)cn2)CC1)C1CN(c2ccc(Oc3ccc(C(C)(C)O)cc3-c3cn(C)c(=O)c4[nH]ccc34)cc2)C1 [Compound I-208] | < 500 | 50 to 500
Cn1cc(-c2cc(C(C)(C)O)ccc2Oc2ccc(N3CC(CN4CC5CC4CN5c4ncc(C(=O)N[C@H]5C(C)(C)[C@H](Oc6ccc(C#N)c(Cl)c6)C5(C)C)cn4)C3)cc2)c2cc[nH]c2c1=O (stereo partly shown) [Compound I-228] | < 500 | 50 to 500
Cn1cc(-c2cc(C(C)(C)O)ccc2Oc2ccc(OCCN3CCN(c4ncc(C(=O)N[C@H]5C(C)(C)[C@H](Oc6ccc(C#N)c(Cl)c6)C5(C)C)cn4)CC3)cc2)c2cc[nH]c2c1=O [Compound I-204] | 500 to 1500 | 50 to 500
CCS(=O)(=O)Nc1ccc(Oc2cccc(OCCOC3CCN(c4ncc(C(=O)N[C@H]5C(C)(C)[C@H](Oc6ccc(C#N)c(Cl)c6)C5(C)C)cn4)CC3)c2)c(-c2cn(C)c(=O)c3[nH]ccc23)c1 [Compound I-6] | < 500 | 
Cc1ccc(CCCOC2CCN(c3ncc(C(=O)N[C@H]4C(C)(C)[C@H](Oc5ccc(C#N)c(Cl)c5)C4(C)C)cn3)CC2)c(C)c1Oc1ccc(C(C)(C)O)cc1-c1cn(C)c(=O)c2[nH]ccc12 [Compound I-195] | > 3000 | 
CN(C1CN(c2ccc(Oc3ccc(C(C)(C)O)cc3-c3cn(C)c(=O)c4[nH]ccc34)cc2)C1)C1CN(c2ncc(C(=O)N[C@H]3C(C)(C)[C@H](Oc4ccc(C#N)c(Cl)c4)C3(C)C)cn2)C1 [Compound I-238] | < 500 | 50 to 500
Cn1cc(-c2cc(C(C)(C)O)ccc2Oc2ccc(N3CC(OC4CCN(c5ncc(C(=O)N[C@H]6C(C)(C)[C@H](Oc7ccc(C#N)c(Cl)c7)C6(C)C)cn5)CC4)C3)cc2)c2cc[nH]c2c1=O [Compound I-219] | > 3000 | 50 to 500
CCS(=O)(=O)Nc1ccc(Oc2cccc(N3CC(OC4CCN(c5ncc(C(=O)N[C@H]6C(C)(C)[C@H](Oc7ccc(C#N)c(Cl)c7)C6(C)C)cn5)CC4)C3)c2)c(-c2cn(C)c(=O)c3[nH]ccc23)c1 [Compound I-80] |  | > 2500
CN(c1ccc(Oc2ccc(C(C)(C)O)cc2-c2cn(C)c(=O)c3[nH]ccc23)cc1)C1CCN(c2ncc(C(=O)N[C@H]3C(C)(C)[C@H](Oc4ccc(C#N)c(Cl)c4)C3(C)C)cn2)CC1 [Compound I-197] | < 500 | 
